We go through 38 compounds from ChEMBL document CHEMBL5518193, “Discovery of N-alkyl-N-benzyl thiazoles as novel TRPC antagonists for the treatment of glioblastoma multiforme” (Eur J Med Chem, 2024).

For orientation: IC50 means the concentration that gives 50% inhibition. The inhibition is the drop in the measured response relative to a control, in per cent.

Active and inactive are the calls of the source. No cut-off for these calls is given here.

The target of the first test is T1, Short transient receptor potential channel 3 (Homo sapiens, UniProt Q13507).
T1 sequence (Q13507 whole entry): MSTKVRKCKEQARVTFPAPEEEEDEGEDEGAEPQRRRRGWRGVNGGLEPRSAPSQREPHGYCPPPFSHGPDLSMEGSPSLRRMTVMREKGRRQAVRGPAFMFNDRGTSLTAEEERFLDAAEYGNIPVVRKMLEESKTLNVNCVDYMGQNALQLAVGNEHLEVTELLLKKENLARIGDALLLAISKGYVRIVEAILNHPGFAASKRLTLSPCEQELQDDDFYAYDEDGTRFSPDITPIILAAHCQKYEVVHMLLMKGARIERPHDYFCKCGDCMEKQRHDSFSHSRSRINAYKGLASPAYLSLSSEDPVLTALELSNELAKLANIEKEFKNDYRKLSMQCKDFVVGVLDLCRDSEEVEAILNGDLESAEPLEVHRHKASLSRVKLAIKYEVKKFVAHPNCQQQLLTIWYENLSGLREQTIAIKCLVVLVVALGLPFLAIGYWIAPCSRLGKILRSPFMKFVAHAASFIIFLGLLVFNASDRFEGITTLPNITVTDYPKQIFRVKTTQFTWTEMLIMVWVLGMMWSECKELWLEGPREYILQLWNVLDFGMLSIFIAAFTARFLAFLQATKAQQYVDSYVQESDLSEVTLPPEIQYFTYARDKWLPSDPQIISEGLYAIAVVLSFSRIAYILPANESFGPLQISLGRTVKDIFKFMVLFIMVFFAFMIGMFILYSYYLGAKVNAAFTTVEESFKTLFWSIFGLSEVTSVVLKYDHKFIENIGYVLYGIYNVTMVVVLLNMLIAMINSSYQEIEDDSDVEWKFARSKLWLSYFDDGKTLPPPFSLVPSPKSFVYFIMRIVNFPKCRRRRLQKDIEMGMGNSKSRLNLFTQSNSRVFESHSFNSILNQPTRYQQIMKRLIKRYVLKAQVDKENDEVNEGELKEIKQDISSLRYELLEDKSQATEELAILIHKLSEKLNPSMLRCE
Kind of test: Antagonist activity at TRPC3 (unknown origin) assessed as inhibition of channel activity.
Details: not given
Regarding `Cc1sc(Nc2ccc(Cl)cc2F)nc1C(=O)N1CCC[C@H](C)[C@@H]1C`, the IC50 stood at 3 nM.

In the case of `CC1CC(C)CN(C(=O)c2csc(Nc3ccc4c(c3)OCO4)n2)C1` (stereo not drawn), the IC50 was determined as 10 nM.

`CC1CCCN(C(=O)c2nc(Nc3cc4c(cc3F)OCO4)sc2Cl)C1C` (stereo not drawn): the IC50 was determined as 5 nM.

On to `C=C[C@@](C)(O)CC[C@H]1C(=C)C[C@H](OC(=O)NC)[C@H]2C(C)(C)CCC[C@]12C`, for which the IC50 turned out to be 840 nM.

The target in a further test is T2, Short transient receptor potential channel 6 (Mus musculus) (UniProt Q61143).
T2 sequence (whole entry): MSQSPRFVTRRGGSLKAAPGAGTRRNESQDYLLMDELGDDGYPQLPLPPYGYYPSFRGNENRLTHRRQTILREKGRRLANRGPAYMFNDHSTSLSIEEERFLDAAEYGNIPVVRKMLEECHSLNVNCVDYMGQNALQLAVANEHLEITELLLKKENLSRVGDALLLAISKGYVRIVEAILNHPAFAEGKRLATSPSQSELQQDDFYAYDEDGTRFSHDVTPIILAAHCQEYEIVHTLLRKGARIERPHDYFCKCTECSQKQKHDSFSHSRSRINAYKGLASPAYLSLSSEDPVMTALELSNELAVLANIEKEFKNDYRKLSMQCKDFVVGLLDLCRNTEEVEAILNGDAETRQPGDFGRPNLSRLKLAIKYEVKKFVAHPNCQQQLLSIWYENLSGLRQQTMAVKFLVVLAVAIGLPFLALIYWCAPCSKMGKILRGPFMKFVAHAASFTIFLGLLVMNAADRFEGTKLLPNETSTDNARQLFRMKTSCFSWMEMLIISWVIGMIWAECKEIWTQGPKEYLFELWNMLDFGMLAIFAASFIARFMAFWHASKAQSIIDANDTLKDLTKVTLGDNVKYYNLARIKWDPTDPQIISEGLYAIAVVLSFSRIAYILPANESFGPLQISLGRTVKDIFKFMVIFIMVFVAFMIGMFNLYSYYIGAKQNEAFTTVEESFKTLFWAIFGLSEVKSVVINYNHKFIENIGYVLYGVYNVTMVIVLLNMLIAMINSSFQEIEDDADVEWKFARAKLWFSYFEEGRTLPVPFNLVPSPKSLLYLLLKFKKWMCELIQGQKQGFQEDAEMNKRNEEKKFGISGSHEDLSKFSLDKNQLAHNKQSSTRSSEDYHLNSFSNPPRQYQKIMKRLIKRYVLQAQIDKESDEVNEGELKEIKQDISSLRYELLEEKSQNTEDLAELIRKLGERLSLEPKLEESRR
The experiment in a line: Antagonist activity at mouse TRPC6 stably expressed in HEK293 cells assessed as inhibition of calcium influx at 10 uM by calcium fluorescence assay. Format: cell-based.
Details: not given
For the compound `CC(=O)NCCN(Cc1ccc2ccccc2c1)c1nc(C(=O)Nc2ccc(O)cc2)cs1`, the inhibition result was “inactive”.

A further test deals with T3, Short transient receptor potential channel 6 (Homo sapiens) (UniProt Q9Y210).
T3 sequence (whole entry): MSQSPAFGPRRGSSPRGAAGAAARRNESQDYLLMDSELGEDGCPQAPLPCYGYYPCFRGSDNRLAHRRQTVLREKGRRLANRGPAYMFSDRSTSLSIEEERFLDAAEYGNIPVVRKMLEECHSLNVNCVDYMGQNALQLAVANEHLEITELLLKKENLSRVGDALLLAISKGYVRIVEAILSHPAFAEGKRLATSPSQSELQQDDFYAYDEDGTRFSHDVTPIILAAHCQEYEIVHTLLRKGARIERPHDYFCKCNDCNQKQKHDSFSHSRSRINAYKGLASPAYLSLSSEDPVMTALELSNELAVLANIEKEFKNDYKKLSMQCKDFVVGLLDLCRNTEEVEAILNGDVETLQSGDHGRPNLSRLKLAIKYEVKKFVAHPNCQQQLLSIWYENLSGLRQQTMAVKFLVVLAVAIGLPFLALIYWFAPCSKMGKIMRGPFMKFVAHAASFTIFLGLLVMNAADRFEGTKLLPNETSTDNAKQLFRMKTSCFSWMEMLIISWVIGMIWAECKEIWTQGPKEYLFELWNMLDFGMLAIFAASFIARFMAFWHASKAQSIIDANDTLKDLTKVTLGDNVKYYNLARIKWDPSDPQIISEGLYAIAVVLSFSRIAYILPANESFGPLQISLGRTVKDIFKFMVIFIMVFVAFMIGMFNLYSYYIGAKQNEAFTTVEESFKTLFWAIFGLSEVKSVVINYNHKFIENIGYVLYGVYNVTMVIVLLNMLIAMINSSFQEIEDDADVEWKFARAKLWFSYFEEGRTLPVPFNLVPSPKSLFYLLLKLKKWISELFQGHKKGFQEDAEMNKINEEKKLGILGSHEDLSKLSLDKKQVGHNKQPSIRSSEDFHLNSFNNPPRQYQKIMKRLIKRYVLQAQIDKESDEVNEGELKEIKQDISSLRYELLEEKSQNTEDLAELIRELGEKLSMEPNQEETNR
The experiment in a line: Antagonist activity at human TRPC6 assessed as inhibition of channel activity at 10 uM relative to control. As to conditions: filed as antagonist.
Turning to `COc1cccc2sc(N(CCN(C)C)C(=O)c3ccc4c(c3)CCCC4)nc12`, the inhibition came to 84.4%.

For another test, the target named is T4, Short transient receptor potential channel 6 (Homo sapiens, UniProt Q9Y210).
T4 sequence (Q9Y210 whole entry): T3 sequence (whole entry)
Kind of test: Antagonist activity at TRPC6 (unknown origin) assessed as inhibition of channel activity.
Details: not given
For the compound `Cc1sc(Nc2ccc(Cl)cc2F)nc1C(=O)N1CCC[C@H](C)[C@@H]1C`, the IC50 amounted to 21 nM.

Take `N#Cc1ccc(O[C@@H]2c3ccccc3C[C@@H]2N2CCC[C@@H](N)C2)cc1`: the IC50 was 0.22 nM.

With `CC1CC(C)CN(C(=O)c2csc(Nc3ccc4c(c3)OCO4)n2)C1` (stereo not drawn), the IC50 is 10 nM.

As to `C=C[C@@](C)(O)CC[C@H]1C(=C)C[C@H](OC(=O)NC)[C@H]2C(C)(C)CCC[C@]12C`, the IC50 was determined as 5.8 nM.

Consider `CC(C)(C)c1ccc(Oc2ccc(C(=O)N3CCC(c4ccc(N)nn4)CC3)cc2)cc1`, for which the IC50 was 13 nM.

As to `COc1cccc2sc(N(CCN(C)C)C(=O)c3ccc4c(c3)CCCC4)nc12`, the IC50 amounted to 4200 nM.

As to `CCOC(=O)N1CCC(C)(C2C=C(O)N3N=C(C)C(c4ccc(F)cc4)C3=N2)CC1` (stereo not drawn), the IC50 worked out at 1000 nM.

The next test concerns the target T2, Short transient receptor potential channel 6 (Mus musculus). The experiment in a line: Antagonist activity at mouse TRPC6 stably expressed in HEK293 cells assessed as inhibition of calcium influx at 10 uM by calcium fluorescence assay relative to control.
Details: not given
The class given is cell-based.
Consider `CCOC(=O)c1csc(N(CCN)C(=O)c2ccc([N+](=O)[O-])cc2)n1`, for which the inhibition was 23%.

`NCCN(Cc1ccc2ccccc2c1)c1nc(C(=O)O)cs1`: the inhibition was 29%.

In the case of `CCOC(=O)c1csc(N(CCN)Cc2ccc([N+](=O)[O-])cc2)n1`, the inhibition came out at 28.3%.

For the compound `CCOC(=O)c1csc(N(CCNS(N)(=O)=O)Cc2ccc3ccccc3c2)n1`, the inhibition was determined as 0.8%.

Turning to `CCOC(=O)c1csc(N(CCN)Cc2c(F)c(F)c(F)c(F)c2F)n1`, the inhibition was 29.2%.

As for `CCOC(=O)c1csc(NCCN)n1`, the inhibition amounted to 19.3%.

On to `CCOC(=O)c1csc(N(CCN)Cc2cccc(F)c2F)n1`, for which the inhibition came out at 14.7%.

Take `CCOC(=O)c1csc(N(CCNC(=O)OC(C)(C)C)C(=O)c2ccc(C(F)(F)F)cc2)n1`: the inhibition was determined as 18.7%.

As to `NCCN(Cc1cccc(C(F)(F)F)c1)c1nc(C(=O)Nc2ccc(O)cc2)cs1`, the inhibition was 10.8%.

`CCOC(=O)c1csc(N(CCNC(=O)OC(C)(C)C)C(=O)c2ccc([N+](=O)[O-])cc2)n1`: the inhibition is 30.3%.

With `NCCN(Cc1cccc(C(F)(F)F)c1)c1nc(C(=O)Nc2ncc[nH]2)cs1`, the inhibition worked out at 18.5%.

For the compound `CCOC(=O)c1csc(N(CCN)Cc2ccc(OC(F)F)cc2)n1`, the inhibition is 26.1%.

In the case of `CCOC(=O)c1csc(N(CCN)Cc2cccc([N+](=O)[O-])c2)n1`, the inhibition came out at 22.1%.

Take `NCCN(Cc1ccc2ccccc2c1)c1nc(C(=O)NC23CC4CC(CC(C4)C2)C3)cs1`: the inhibition turned out to be 35.6%.

In the case of `CCOC(=O)c1csc(N(CCN)Cc2ccccc2)n1`, the inhibition worked out at 30.5%.

For `CCOC(=O)c1csc(N(CCNS(C)(=O)=O)Cc2ccc3ccccc3c2)n1`, the inhibition was determined as 32.4%.

Still in this test, the particulars now being: filed as antagonist.
On to `CCOC(=O)c1csc(N(CCN)Cc2ccc3ccccc3n2)n1`, for which the inhibition came to 56.6%.

For `CCOC(=O)c1csc(N(CCN)Cc2ccc3ccccc3c2)n1`, the inhibition stood at 97.9%.

Regarding `CCN(CC)CCNC(=O)c1csc(N(CCN)Cc2ccc3ccccc3c2)n1`, the inhibition was 53.3%.

On to `CCOC(=O)c1csc(N(CCN)Cc2ccc3cc(Br)ccc3c2)n1`, for which the inhibition turned out to be 56.8%.

In the case of `CCOC(=O)c1csc(N(CCN)Cc2cccc(C(F)(F)F)c2)n1`, the inhibition was 92.2%.

For `CCOC(=O)c1csc(N(CCN)Cc2ccc(C(F)(F)F)cc2)n1`, the inhibition was found to be 84.6%.

For `CCN(CC)CCNC(=O)c1csc(N(CCN)Cc2cccc(C(F)(F)F)c2)n1`, the inhibition turned out to be 50.6%.

For `COc1cccc2sc(N(CCN(C)C)C(=O)c3ccc4c(c3)CCCC4)nc12`, the inhibition worked out at 84.8%.

As to `CCOC(=O)c1csc(N(CCN)Cc2cccc3ccccc23)n1`, the inhibition is 77.6%.

Take `CCOC(=O)c1csc(N(CCN)Cc2cc(F)ccc2Br)n1`: the inhibition was determined as 59.5%.

Turning to `CCOC(=O)c1csc(N(CCN)Cc2cccc(OC(F)F)c2)n1`, the inhibition came out at 40.9%.

Turning to `NCCN(Cc1cccc(C(F)(F)F)c1)c1nc(C(=O)NCCc2ccccc2)cs1`, the inhibition was determined as 81.9%.

Consider `CCOC(=O)c1csc(N(CCN)C(=O)c2ccc(C(F)(F)F)cc2)n1`, for which the inhibition came out at 44.2%.

The test system of the next test is U-87 MG. The experiment in a line: Antitumor activity against human U87 cells xenografted in BALB/c nude mouse assessed as tumor growth inhibition at 50 mg/kg/day administered as liposome encapsulated form for 15 days and measured every 3 days by vernier caliper. As to conditions: 360 h, time 15 day, read-out: TGI. The class given is functional, U-87MG ATCC.
For `Cn1nnc2c(C(N)=O)ncn2c1=O` [TEMOZOLOMIDE], the inhibition in vivo at 50 mg/kg/day is 36.5%.
